# Patent US9540352B2, “Substituted 1,7-naphthyridines as dopamine D1 ligands” (PFIZER INC., priority 2014, dated 2017)
# Target: Human D1 Receptor (Homo sapiens (Human), UniProt P21728)
# Test: Human D1 receptor binding assay ([3H]-SCH23390 competition)
# Settings: over-expressing LTK human cell lines; 0.5 nM [3H]-SCH23390; 30 min at 37 °C; footnote a: geometric mean of ≥5 determinations; footnote b: single determination; read-out: Human D1 Receptor Binding, Ki (nM); Geometric mean of 2-4 determinations (unless otherwise indicated)
# Description: The affinity of the compounds described herein was determined by competition binding assays similar to those described in Ryman-Rasmussen et al., “Differential activation of adenylate cyclase and receptor internalization by novel dopamine D1 receptor agonists”, Molecular Pharmacology 68(4):1039-1048 (2005).
# D1 binding assays were performed using over-expressing LTK human cell lines. […] These ligand and tissue concentrations were used in time course studies to determine linearity and equilibrium conditions for binding. Binding was at equilibrium with the specified amount of tissue in 30 minutes at 37° C. […] The pellet was resuspended in assay buffer [50 mM Tris (pH 7.4@ RT) containing 4 mM MgSO4 and 0.5 mM EDTA]. […] Non-specific binding was determined by radioligand binding in the presence of a saturating concentration of (+)-Butaclamol (10 μM), a D1 antagonist. After a 30 minute incubation period at 37° C., assay samples were rapidly filtered through Unifilter-96 GF/B PEI-coated filter plates and rinsed with 50 mM Tris buffer (pH 7.4 at 4° C.). […] The IC50 value (concentration at which 50% inhibition of specific binding occurs) was calculated by linear regression of the concentration-response data in Microsoft Excel. Ki values were calculated according to the Cheng-Prusoff equation: […]
# Human D1 Receptor, sequence (P21728 whole entry): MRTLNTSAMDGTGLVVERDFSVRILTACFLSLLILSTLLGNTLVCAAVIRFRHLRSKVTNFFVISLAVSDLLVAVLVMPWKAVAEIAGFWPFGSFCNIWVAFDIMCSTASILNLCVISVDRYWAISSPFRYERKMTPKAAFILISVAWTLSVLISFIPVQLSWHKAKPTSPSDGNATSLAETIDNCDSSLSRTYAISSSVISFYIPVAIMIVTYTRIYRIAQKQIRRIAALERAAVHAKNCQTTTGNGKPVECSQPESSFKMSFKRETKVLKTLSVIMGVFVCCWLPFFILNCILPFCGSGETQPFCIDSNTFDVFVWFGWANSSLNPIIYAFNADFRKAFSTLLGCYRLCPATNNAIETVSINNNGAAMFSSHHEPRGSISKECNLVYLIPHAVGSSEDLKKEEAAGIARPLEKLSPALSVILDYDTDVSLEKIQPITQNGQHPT
row,Ki,SMILES
1,115 nM,"Cc1cc(Oc2nccc3cccnc23)ccc1-c1c(C)n[nH]c(=O)c1C (single isomer, unassigned) [Example 2, (+)-4,6-Dimethyl-5-[2-methyl-4-(1,7-naphthyridin-8-yloxy)phenyl]pyridazin-3(2H)-one]"
2,102 nM,"Cc1cc(Oc2nccc3cccnc23)ccc1-c1c(C)n[nH]c(=O)c1C (single isomer, unassigned) [Example 3, (−)-4,6-Dimethyl-5-[2-methyl-4-(1,7-naphthyridin-8-yloxy)phenyl]pyridazin-3(2H)-one]"
3,28.5 nM,"Cc1cc(Oc2nccc3cccnc23)ccc1-c1c(C)c(=O)[nH]c(=O)n1C [Example 1, 1,5-Dimethyl-6-[2-methyl-4-(1,7-naphthyridin-8-yloxy)phenyl]pyrimidine-2,4(1H,3H)-dione]"
4,205 nM,"Cc1n[nH]c(=O)c(C)c1-c1ccc(Oc2nccc3cccnc23)cc1 [Example 4, 4,6-Dimethyl-5-[4-(1,7-naphthyridin-8-yloxy)phenyl]pyridazin-3(2H)-one]"
5,1.9 nM,"Cc1cc(Oc2nccc3ccccc23)ccc1-c1c(C)c(=O)[nH]c(=O)n1C [Example 5, 6-[4-(Isoquinolin-1-yloxy)-2-methylphenyl]-1,5-dimethylpyrimidine-2,4(1H,3H)-dione]"
6,105 nM,"Cc1cc(Oc2nccc3cccnc23)ccc1-c1c(C)ncnc1C [Example 6, 8-[4-(4,6-dimethylpyrimidin-5-yl)-3-methylphenoxy]-1,7-naphthyridine]"
7,119 nM,"Cc1c(-c2ccc(Oc3nccc4cccnc34)cc2)n(C)c(=O)[nH]c1=O [Example 7, 1,5-dimethyl-6-[4-(1,7-naphthyridin-8-yloxy)phenyl]pyrimidine-2,4(1H,3H)-dione]"
8,141 nM,"Cc1cc(Oc2nccc3ccncc23)ccc1-c1c(C)n[nH]c(=O)c1C [Example 8, 4,6-dimethyl-5-[2-methyl-4-(2,7-naphthyridin-1-yloxy)phenyl]pyridazin-3(2H)-one]"
9,306 nM,"Cc1cc(Oc2nccc3nccnc23)ccc1-c1c(C)n[nH]c(=O)c1C [Example 9, 4,6-dimethyl-5-[2-methyl-4-(pyrido[3,4-b]pyrazin-5-yloxy)phenyl]pyridazin-3(2H)-one]"
10,124 nM,"Cc1cc(Oc2nccc3ncccc23)ccc1-c1c(C)n[nH]c(=O)c1C [Example 10, 4,6-dimethyl-5-[2-methyl-4-(1,6-naphthyridin-5-yloxy)phenyl]pyridazin-3(2H)-one]"
11,7.8 nM,"Cc1cc(Oc2nccc3ccccc23)ccc1-c1c(C)n[nH]c(=O)c1C [Example 11, 5-[4-(isoquinolin-1-yloxy)-2-methylphenyl]-4,6-dimethylpyridazin-3(2H)-one]"
12,186 nM,"COc1ccc2ccnc(Oc3ccc(-c4c(C)n[nH]c(=O)c4C)c(C)c3)c2c1 [Example 12, 5-{4-[(7-methoxyisoquinolin-1-yl)oxy]-2-methylphenyl}-4,6-dimethylpyridazin-3(2H)-one]"
13,334 nM,"Cc1cc(Oc2nccc3ccc(C#N)cc23)ccc1-c1c(C)n[nH]c(=O)c1C [Example 13, 1-[4-(3,5-dimethyl-6-oxo-1,6-dihydropyridazin-4-yl)-3-methylphenoxy]isoquinoline-7-carbonitrile]"
14,261 nM,"Cc1cc(Oc2nccc3cccc(C#N)c23)ccc1-c1c(C)n[nH]c(=O)c1C [Example 14, 1-[4-(3,5-dimethyl-6-oxo-1,6-dihydropyridazin-4-yl)-3-methylphenoxy]isoquinoline-8-carbonitrile]"
